In patent US20110027354A1, “ANTI-PA[…]” (priority 2008, published 2011):
“Also recorded” adds a separate entry of the source.

Key:
mice = experiment: Locomotor activity after repeated treatment with drug alone; assay type: in vivo; settings: repeated treatment i.p./day×7, selegiline or MPPE 2.5 or 5.0 mg/kg, MA 0.5 or 1.0 mg/kg; for locomotor activities: vs. saline
Description: Selegiline or […] was injected (2.5 or 5 mg/kg, i.p.) once a day for 7 consecutive days. Methamphetamine, a positive control, was also administered (0.5 or 1 mg/kg, i.p.) once a day for 7 days.
Locomotor activity measured for 30 min one day after the last MPTP administration using an automated video-tracking system (Noldus Information Technology, Wagenin, The Netherlands). Eight test boxes (40×40×30 cm high) were operated simultaneously by an IBM computer. Animals were studied individually during locomotion in each test box, where they were adapted for 5 min before starting the experiment. […] The distance traveled in cm by the animals in horizontal locomotor activity was analyzed. Data were collected and analyzed between 09:00 and 17:00 h (Kim et al., 2001).

[1] = test system: dopamine (DA), DOPAC and HVA in the striatum; experiment: HPLC analysis of striatal DA, DOPAC and HVA; assay type: in vivo, mice; settings: for effect on MPTP-induced increase of DA turnover rate / effect on MPTP-induced reduction of DOPAC / effect on MPTP-induced reduction of HVA / effect on MPTP-induced reduction of dopamine (DA): 2.5 mg/kg i.p., vs. MPTP alone; for effect on MPTP-induced reduction of dopamine (DA): 2.5 mg/kg; for levels of DA, DOPAC, HVA: drug alone (no MPTP)
Description: At 1 day after last MPTP injections mice were killed by cervical dislocation, the brains were removed and placed on an ice-cooled plate. Striatum was dissected and immediately frozen on dry ice and store at −70° C. until extraction. Brain regions obtained from each animal were weighed, ultrasonicated in 10% perchloric acid containing 10 ng/mg of the internal standard dihydroxybenzilamine, and centrifuged at 20,000 g for 10 min. The levels of DA and its metabolites 3,4-dihydroxyphenylacetic acid (DOPAC) and homovanillic acid (HVA) in brain tissue extracts were determined by HPLC coupled with electrochemical detection as described (Ali et al., 1994). Briefly, striatal tissues were sonicated in 0.2 M perchloric acid (20% W/V) containing the internal standard 3,4-dihydroxybenzylamine (10 mg wet tissue/ml) The homogenate was centrifuged and a 20-μl aliquot of the supernatant was injected into the HPLC equipped with a 3-μm C18 column. The mobile phase was comprised of 26 ml of acetonitrile, 21 ml of tetrahydrofuran and 960 ml of 0.15 M monochloroacetic acid (pH 3.0) containing 50 mg/l of EDTA and 200 mg/l of sodium octyl sulfate. The amount of DA, DOPAC and HVA were determined by comparison of peak height ratio of tissue sample with standards, and were expressed in nanograms per gram of wet weight of tissue.

[2] = test system: tyrosine hydroxylase (TH); experiment: TH activity; assay type: in vivo, mice; settings: for TH activity: drug alone (no MPTP); for effect on MPTP-induced decrease of TH activity: one day after final MPTP, vs. MPTP alone
[3] = test system: tyrosine hydroxylase (TH); experiment: Western blotting for pan-TH and TH phosphorylation; assay type: in vivo, mice; settings: for effect on MPTP-induced decrease of TH phosphorylation at Ser19, Ser31 and Ser40: pre-treatment; for effect on MPTP-induced decrease of TH phosphorylation at Ser19, Ser31 and Ser40 / effect on MPTP-induced decrease of TH-immunoreactivity (TH-IR): vs. MPTP alone
Description: (§1) The western blot assays were performed as described previously (thong et al., 1997). Tissues were homogenized in lysis buffer, containing 200 mM Tris HCl (pH 6.8), 1% SDS, 5 mM ethylene glycol tetraacetic acid, 5 mM ethylenediaminetetraacetic acid, 10% glycerol, 1× phosphatase inhibitor cocktail I, 1× protease inhibitor cocktail. The supernatant fraction was subsequently centrifuged at 30,000×g for 30 min. The resulting pellet was resuspended in the sample buffer. Proteins (20-50 ug/lane) were separated by 6%, 8%, 10% or 15% sodium dodecyl sulfate-polyacrylamide gel electrophoresis and transferred onto the nitrocellulose membranes. Following transfer, the nitrocellulose membranes were preincubated with 5% non-fat milk and incubated overnight at 4° C. with anti-β-actin (Sigma, 1:50000), anti-TH (Chemicon, 1:5000), anti-TH phosphoser19 (Chemicon, 1:5000), anti-TH phosphoser31 (Chemicon, 1:500), anti-TH phosphoser40 (Chemicon, 1:500), anti-F 4/80 (Serotec, 1:500), anti-BDNF (Chemicon, 1:500), anti-GDNF (Santa-Cruz, 1:250), anti-Akt (Cell signaling, 1:1000), anti-phospho Akt ser 473 (Cell signaling, 1:1000), anti-PI3K (Cell signaling, 1:1000), anti-phospho PI3K (Cell signaling, 1:500) and anti-α-synuclein (BD Transduction, 1:500) antibody. After incubation with primary antibody, membranes were incubated with the secondary anti-rabbit IgG, Horseradish Peroxidase (1:1000 dilution, Amersham) or anti-mouse IgG, Horseradish Peroxidase (1:1000, Sigma), or anti-goat IgG, Horseradish Peroxidase (1:1000, Sigma) for 2 h, washed. Subsequently visualized with the Amersham ECL system (Amersham, Arlington Heights, Ill., USA).

[4] = test system: F4/80, a marker of reactive microglia; experiment: F4/80 expression (western blot); assay type: in vivo, mice; settings: striatum; pre-treatment; vs. MPTP alone
Description: as §1, with “After incubation with primary antibody, membranes were incubated with the secondary anti-rabbit IgG, Horseradish Peroxidase (1:1000 dilution, Amersham) or anti-mouse IgG, Horseradish Peroxidase (1:1000, Sigma), or anti-goat IgG, Horseradish Peroxidase (1:1000, Sigma) for 2 h, washed. Subsequently visualized with the Amersham ECL system (Amersham, Arlington Heights, Ill., USA).” left out

[5] = test system: reactive oxygen species (ROS); experiment: Determination of ROS formation; assay type: in vivo, mice; settings: striatum; for ROS level: drug alone (no MPTP); for effect on MPTP-induced increase in ROS level: one day after final MPTP, vs. MPTP alone
Description: The extent of reactive oxygen species (ROS) formation in the prefrontal cortex was assessed by measuring the conversion from 2′,7′-dichlorofluorescin diacetate (DCFH-DA) to dichlorofluoresin. (DCF) as describe by Bourre et al. with slight modification (Sutsumi, S et al., 2002). Brain homogenates were added to a tube containing 2 ml of PBS with 10 nmole of DCFH-DA, dissolved in methanol. Mixtures were incubated at 37° C. for 3 h and then measured the […] at 480 nm excitation and 525 nm emission. DCF is used as a standard.

α-synuclein = experiment: Oligomergic α-synuclein expression (western blot); assay type: in vivo, mice; settings: striatum; for effect on MPTP-induced increase in oligomergic α-synuclein: vs. MPTP alone
Description: as §1

[6] = test system: brain derived neurotrophic factor (BDNF); experiment: BDNF expression (western blot); assay type: in vivo, mice; settings: striatum; for effect on MPTP-induced reduction of BDNF expression: pre-treatment, vs. MPTP alone
Description: as §1

[7] = test system: glial cell line-derived neurotrophic factor (GDNF); experiment: GDNF expression (western blot); assay type: in vivo, mice; settings: striatum; for effect on MPTP-induced reduction of GDNF expression: pre-treatment, vs. MPTP alone
Description: as §1

phospho-Akt = experiment: Phosphorylation of Akt at Ser473 (western blot); assay type: in vivo, mice; settings: striatum; for effect on MPTP-induced decrease in phospho-Akt: vs. MPTP alone
Description: as §1

phospho-PI3K = experiment: Phosphorylation of PI3K (western blot); assay type: in vivo, mice; settings: striatum; for effect on MPTP-induced decrease in phospho-PI3K: vs. MPTP alone
Description: as §1

MPTP-treated mice = experiment: Rota-rod test in MPTP-treated mice; settings: 2.5 mg/kg i.p.; for effect on MPTP-impaired Rota-rod performance: vs. MPTP alone
Description: The apparatus (Ugo Basile model 7650) consisted of a base platform and a rotating rod with a nonslippery surface. The rod was placed at a height of 15 cm from the base. The rod, 30 cm in length, was divided into 5 equal sections by 6 opaque disks (so that the subjects cannot be distracted by one another). To assess motor performance, the mice were first trained on the apparatus 2 minutes at a rate 4 r.p.m. per 30 s prior to the test. The test was performed 30 minutes after training and an accelerating paradigm was applied at a rate 4 r.p.m. per 30 s, starting from 4 r.p.m. to a maximum speed of 40 r.p.m., then the rotation speed was kept constant at 40 r.p.m. for a maximum of 300 s. The duration for which the animal could maintain balance on the rotating drum was measured as the rotarod latency, with a maximal cut-off time of 300 s.

[8] = striatum and SN, vs. selegiline+MPTP

SMILES | locomotor patterns (mice) | locomotor activities (mice) | effect on MPTP-induced increase of DA turnover rate [1] | effect on MPTP-induced reduction of DOPAC [1] | effect on MPTP-induced reduction of HVA [1] | effect on MPTP-induced reduction of dopamine (DA) [1] | levels of DA, DOPAC, HVA [1] | TH activity [2] | effect on MPTP-induced decrease of TH activity ([2]; striatum) | effect on MPTP-induced decrease of TH activity ([2]; substantia nigra (SN)) | effect on MPTP-induced decrease of TH phosphorylation at Ser19, Ser31 and Ser40 ([3]; SN) | effect on MPTP-induced decrease of TH-immunoreactivity (TH-IR) ([3]; SN, western blotting) | effect on MPTP-induced decrease of TH phosphorylation at Ser19, Ser31 and Ser40 ([3]; striatum) | effect on MPTP-induced decrease of TH-immunoreactivity (TH-IR) ([3]; striatum, western blotting) | effect on MPTP-induced increase in F4/80-immunoreactivity [4] | ROS level [5] | effect on MPTP-induced increase in ROS level [5] | effect on MPTP-induced increase in oligomergic α-synuclein (α-synuclein) | effect on MPTP-induced reduction of BDNF expression [6] | effect on MPTP-induced reduction of GDNF expression [7] | also measured
C#CCN(C)CCc1ccccc1 [MPPE, N-methyl-N-propynyl-2-phenylethylamine] | comparable to those by saline; also recorded: did not show these behavioural side effects | did not significantly alter locomotor activities | attenuated | attenuated | attenuated | significantly attenuated | did not show any significant effect | did not show any significant effect | attenuated | attenuated | reversed | attenuated | reversed | attenuated | significantly blocked increase in F4/80-immunoreactivity induced by MPTP; also recorded: attenuated | a little induction | attenuated | significantly attenuated | significantly attenuated | significantly attenuated | attenuation for DA level compared with selegiline ([1]; vs. selegiline+MPTP): more pronounced in the MPPE-treated mice; attenuation of DA turnover rate increase compared with selegiline ([1]; vs. selegiline+MPTP): more evident than by selegiline; attenuation of TH activity decrease compared with selegiline [2, 8]: more effective; effect on TH phosphorylation at Ser19, Ser31 and Ser40 compared with selegiline [3, 8]: more effective; attenuation of TH-IR decrease compared with selegiline ([3]; striatum and SN, western blotting, vs. selegiline+MPTP): more evident; attenuation of ROS increase compared with selegiline ([5]; vs. selegiline+MPTP): appeared to be more underlined in the MPPE-pretreated mice; protection against α-synuclein increase compared with selegiline (α-synuclein; vs. selegiline+MPTP): more protective effect; enhancement of BDNF expression compared with selegiline ([6]; vs. selegiline+MPTP): more effective; enhancement of GDNF expression compared with selegiline ([7]; vs. selegiline+MPTP): more effective; effect on MPTP-induced decrease in phospho-Akt (phospho-Akt): significantly attenuated; attenuation of phospho-Akt decrease compared with selegiline (phospho-Akt; vs. selegiline+MPTP): more pronounced in MPPE-treated mice; effect on MPTP-induced decrease in phospho-PI3K (phospho-PI3K): significantly attenuated; attenuation of phospho-PI3K decrease compared with selegiline (phospho-PI3K; vs. selegiline+MPTP): more pronounced in MPPE-treated mice; effect on MPTP-impaired Rota-rod performance (MPTP-treated mice): significantly attenuated; attenuation of MPTP-reduced rota-rod performance compared with selegiline (MPTP-treated mice; vs. selegiline-pretreated): more pronounced in the MPPE-pretreated mice than selegiline-pretreated case
C#CCN(C)[C@H](C)Cc1ccccc1 [selegiline, reference compound] | circling locomotor patterns | significantly increased | attenuated | attenuated | attenuated | significantly attenuated | did not show any significant effect | did not show any significant effect | attenuated | attenuated | reversed | attenuated | reversed | attenuated | significantly blocked increase in F4/80-immunoreactivity induced by MPTP; also recorded: attenuated | a little induction | attenuated | significantly attenuated | significantly attenuated | significantly attenuated | locomotor patterns (mice; listed as Sel): typical circling locomotor patterns; effect on MPTP-induced decrease in phospho-Akt (phospho-Akt): significantly attenuated; effect on MPTP-induced decrease in phospho-PI3K (phospho-PI3K): significantly attenuated; effect on MPTP-impaired Rota-rod performance (MPTP-treated mice): significantly attenuated
